# In ChEMBL document CHEMBL2040726, “The effects of aminoguanidine on retinopathy in STZ-induced diabetic rats” (Bioorg Med Chem Lett, 2012):
# Activity calls are given as the source filed them. The calls are words filed in the database; no cut-off is given here.
# Tests used:
# Rattus norvegicus [1] = assay: Antiretinopathic activity in Sprague-Dawley rat streptozotocin-induced diabetic model assessed as effect on retinal endothelial cell count at 50 mg/kg/day administered with drinking water after 3 months by hematoxylin and eosin staining; format: functional, organism-based
# Rattus norvegicus [2] = assay: Antidiabetic activity in Sprague-Dawley rat streptozotocin-induced diabetic model assessed as reduction of fasting blood glucose level at 50 mg/kg/day administered with drinking water after 6 months (reference value: 20.20 +/- 5.51 mmol/L); format: functional
# Rattus norvegicus [3] = assay: Antiretinopathic activity in Sprague-Dawley rat streptozotocin-induced diabetic model assessed as effect on retinal endothelial cell count at 50 mg/kg/day administered with drinking water after 6 months by hematoxylin and eosin staining; format: functional, organism-based
# Rattus norvegicus [4] = assay: Antiretinopathic activity in Sprague-Dawley rat streptozotocin-induced diabetic model assessed as ratio of retinal endothelial cell count to pericyte cell count at 50 mg/kg/day administered with drinking water after 6 months by hematoxylin and eosin staining (reference value: 10.91 +/- 3.34); format: functional
# Rattus norvegicus [5] = assay: Antiretinopathic activity in Sprague-Dawley rat streptozotocin-induced diabetic model assessed as swollen of retinal pericyte mitochondria and endothelial cells at 50 mg/kg/day administered with drinking water after 6 months by transmission electron microscopic analysis; format: functional, organism-based; details: Endothelial cell
# Rattus norvegicus [6] = assay: Toxicity in normal Sprague-Dawley rat assessed as effect on retinal endothelial cell count at 50 mg/kg/day administered with drinking water after 3 months by hematoxylin and eosin staining; format: organism-based; details: in vivo
# Rattus norvegicus [7] = assay: Toxicity in normal Sprague-Dawley rat assessed as reduction of body weight at 50 mg/kg/day administered with drinking water after 6 months (reference value: 547.50 +/- 36.23 g); format: organism-based; details: in vivo
# Rattus norvegicus [8] = assay: Toxicity in normal Sprague-Dawley rat assessed as effect on retinal endothelial cell count at 50 mg/kg/day administered with drinking water after 6 months by hematoxylin and eosin staining; format: organism-based; details: in vivo
# Rattus norvegicus [9] = assay: Antidiabetic activity in Sprague-Dawley rat streptozotocin-induced diabetic model assessed as reduction of fasting blood glucose level at 50 mg/kg/day administered with drinking water after 3 months (reference value: 20.99 +/- 4.13 mmol/L); format: functional
# Rattus norvegicus [10] = assay: Toxicity in normal Sprague-Dawley rat assessed as effect on retinal pericyte cell count at 50 mg/kg/day administered with drinking water after 3 months by hematoxylin and eosin staining; format: organism-based; details: in vivo
# Rattus norvegicus [11] = assay: Toxicity in normal Sprague-Dawley rat assessed as effect on retinal pericyte cell count at 50 mg/kg/day administered with drinking water after 6 months by hematoxylin and eosin staining; format: organism-based; details: in vivo
# Rattus norvegicus [12] = assay: Antiretinopathic activity in Sprague-Dawley rat streptozotocin-induced diabetic model assessed as reduction of retinal advanced glycated end products positive area at 50 mg/kg/day administered with drinking water after 3 months by immunohistochemistry analysis (reference value: 69.20 +/- 10.75%); format: functional; parameters: scale not given: the % may be the effect or the level left
# Rattus norvegicus [13] = assay: Antiretinopathic activity in Sprague-Dawley rat streptozotocin-induced diabetic model assessed as effect on retinal pericyte cell count at 50 mg/kg/day administered with drinking water after 6 months by hematoxylin and eosin staining; format: functional, organism-based
# Rattus norvegicus [14] = assay: Antidiabetic activity in Sprague-Dawley rat streptozotocin-induced diabetic model assessed as reduction of body weight at 50 mg/kg/day administered with drinking water after 3 months (reference value: 206.00 +/- 52.59 g); format: functional
# Rattus norvegicus [15] = assay: Antiretinopathic activity in Sprague-Dawley rat streptozotocin-induced diabetic model assessed as reduction of retinal advanced glycated end products positive area at 50 mg/kg/day administered with drinking water after 6 months by immunohistochemistry analysis (reference value: 78.70 +/- 7.11%); format: functional; parameters: scale not given: the % may be the effect or the level left
# Rattus norvegicus [16] = assay: Antiretinopathic activity in Sprague-Dawley rat streptozotocin-induced diabetic model assessed as increase of retinal electron density of basement membrane at 50 mg/kg/day administered with drinking water after 6 months by transmission electron microscopic analysis; format: functional, organism-based
# Rattus norvegicus [17] = assay: Effect on fasting blood glucose level in normal Sprague-Dawley rat 50 mg/kg/day administered with drinking water after 6 months (reference value: 5.51 +/- 1.06 mmol/L); format: functional
# Rattus norvegicus [18] = assay: Antiretinopathic activity in Sprague-Dawley rat streptozotocin-induced diabetic model assessed as ratio of retinal endothelial cell count to pericyte cell count at 50 mg/kg/day administered with drinking water after 3 months by hematoxylin and eosin staining (reference value: 3.25 +/- 0.27); format: functional
# Rattus norvegicus [19] = assay: Toxicity in normal Sprague-Dawley rat assessed as retinal advanced glycated end products positive area at 50 mg/kg/day administered with drinking water after 3 months by immunohistochemistry analysis (reference value: 0.64 +/- 0.87%); format: organism-based; details: in vivo
# Rattus norvegicus [20] = assay: Toxicity in normal Sprague-Dawley rat assessed as reduction of body weight at 50 mg/kg/day administered with drinking water after 3 months (reference value: 561.00 +/- 32.04 g); format: organism-based; details: in vivo
# Rattus norvegicus [21] = assay: Antidiabetic activity in Sprague-Dawley rat streptozotocin-induced diabetic model assessed as reduction of body weight at 50 mg/kg/day administered with drinking water after 6 months (reference value: 254.50 +/- 123.03 g); format: functional
# Rattus norvegicus [22] = assay: Effect on fasting blood glucose level in normal Sprague-Dawley rat 50 mg/kg/day administered with drinking water after 3 months (reference value: 5.68 +/- 0.96 mmol/L); format: functional
# Rattus norvegicus [23] = assay: Toxicity in normal Sprague-Dawley rat assessed as effect on ratio of retinal endothelial cell count to pericyte cell count at 50 mg/kg/day administered with drinking water after 6 months by hematoxylin and eosin staining (reference value: 3.58 +/- 0.61); format: organism-based; details: in vivo
# Rattus norvegicus [24] = assay: Antiretinopathic activity in Sprague-Dawley rat streptozotocin-induced diabetic model assessed as effect on retinal pericyte cell count at 50 mg/kg/day administered with drinking water after 3 months by hematoxylin and eosin staining; format: functional, organism-based
# Rattus norvegicus [25] = assay: Toxicity in normal Sprague-Dawley rat assessed as retinal advanced glycated end products positive area at 50 mg/kg/day administered with drinking water after 6 months by immunohistochemistry analysis (reference value: 0.75 +/- 0.94%); format: organism-based; details: in vivo
# Rattus norvegicus [26] = assay: Toxicity in normal Sprague-Dawley rat assessed as effect on ratio of retinal endothelial cell count to pericyte cell count at 50 mg/kg/day administered with drinking water after 3 months by hematoxylin and eosin staining (reference value: 2.89 +/- 0.76); format: organism-based; details: in vivo
smiles,measurement,setting,value
N=C(N)NN [PIMAGEDINE],Activity,Rattus norvegicus [1],inactive
same,Activity,Rattus norvegicus [2],21.74 mmol/L
same,Activity,Rattus norvegicus [3],inactive
same,Ratio,Rattus norvegicus [4],3.71
same,Activity,Rattus norvegicus [5],Active
same,Activity,Rattus norvegicus [6],Non-toxic
same,Activity,Rattus norvegicus [7],553 g
same,Activity,Rattus norvegicus [8],Non-toxic
same,Activity,Rattus norvegicus [9],21.89 mmol/L
same,Activity,Rattus norvegicus [10],Non-toxic
same,Activity,Rattus norvegicus [11],Non-toxic
same,Activity,Rattus norvegicus [12],12.71%
same,Activity,Rattus norvegicus [13],inactive
same,Activity,Rattus norvegicus [14],219.5 g
same,Activity,Rattus norvegicus [15],9.16%
same,Activity,Rattus norvegicus [16],inactive
same,Activity,Rattus norvegicus [17],5.07 mmol/L
same,Ratio,Rattus norvegicus [18],3.06
same,Activity,Rattus norvegicus [19],1.33%
same,Activity,Rattus norvegicus [20],536.5 g
same,Activity,Rattus norvegicus [21],284.5 g
same,Activity,Rattus norvegicus [22],5.23 mmol/L
same,Ratio,Rattus norvegicus [23],3.46
same,Activity,Rattus norvegicus [24],inactive
same,Activity,Rattus norvegicus [25],3.27%
same,Ratio,Rattus norvegicus [26],2.95
